From publication PMC7317212 (Chemmedchem, 2020)

Columns and labels:
mGAT2 [1] = biological target: T1, mGAT2 (Mus musculus, UniProt P31651); settings: cited from earlier work; for remaining [^3H]GABA uptake mGAT2: in presence of 100 μM compound
T1 construct: expressed in transfected cells; host or cells: HEK293
T1 sequence (P31651 1-614): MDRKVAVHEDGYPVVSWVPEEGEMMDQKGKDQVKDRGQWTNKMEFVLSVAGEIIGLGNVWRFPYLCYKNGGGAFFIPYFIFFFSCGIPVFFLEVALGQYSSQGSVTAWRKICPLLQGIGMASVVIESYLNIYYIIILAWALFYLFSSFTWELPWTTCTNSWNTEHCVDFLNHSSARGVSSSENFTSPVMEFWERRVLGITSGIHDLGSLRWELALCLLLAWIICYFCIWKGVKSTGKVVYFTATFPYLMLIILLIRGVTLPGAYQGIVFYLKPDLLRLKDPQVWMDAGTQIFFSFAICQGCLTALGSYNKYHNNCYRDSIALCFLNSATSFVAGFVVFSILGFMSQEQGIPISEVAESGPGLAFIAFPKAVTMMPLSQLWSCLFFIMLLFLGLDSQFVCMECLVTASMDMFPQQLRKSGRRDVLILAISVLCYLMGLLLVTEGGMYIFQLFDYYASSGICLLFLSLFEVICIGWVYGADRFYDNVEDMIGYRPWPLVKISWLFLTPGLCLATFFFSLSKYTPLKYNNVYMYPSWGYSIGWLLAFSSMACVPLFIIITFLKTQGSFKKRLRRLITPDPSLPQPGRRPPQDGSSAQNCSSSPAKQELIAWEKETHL

mGAT3 [2] = biological target: T2, mGAT3 (Mus musculus, UniProt P31649); settings: cited from earlier work
T2 construct: expressed in transfected cells; host or cells: HEK293
T2 sequence (P31649 1-602): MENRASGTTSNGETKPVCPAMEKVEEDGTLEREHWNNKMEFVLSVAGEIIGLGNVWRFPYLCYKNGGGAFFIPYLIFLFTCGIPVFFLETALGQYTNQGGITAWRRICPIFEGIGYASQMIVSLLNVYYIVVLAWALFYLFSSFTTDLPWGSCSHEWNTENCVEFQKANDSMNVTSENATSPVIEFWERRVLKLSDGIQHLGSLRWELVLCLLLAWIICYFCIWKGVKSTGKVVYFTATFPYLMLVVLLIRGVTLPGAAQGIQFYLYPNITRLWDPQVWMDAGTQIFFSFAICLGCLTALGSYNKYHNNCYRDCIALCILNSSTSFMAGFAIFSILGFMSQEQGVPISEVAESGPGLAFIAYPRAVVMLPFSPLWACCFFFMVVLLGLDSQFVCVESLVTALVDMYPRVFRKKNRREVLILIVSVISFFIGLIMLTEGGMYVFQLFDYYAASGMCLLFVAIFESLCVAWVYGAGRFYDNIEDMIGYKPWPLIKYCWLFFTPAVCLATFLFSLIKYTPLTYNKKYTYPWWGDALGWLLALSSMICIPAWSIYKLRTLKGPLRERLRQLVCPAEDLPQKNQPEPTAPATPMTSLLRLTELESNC

mGAT4 [3] = biological target: T3, mGAT4 (Mus musculus, UniProt P31650); settings: in presence of 100 μM compound; cited from earlier work
T3 construct: expressed in transfected cells; host or cells: HEK293
T3 sequence (P31650 1-627): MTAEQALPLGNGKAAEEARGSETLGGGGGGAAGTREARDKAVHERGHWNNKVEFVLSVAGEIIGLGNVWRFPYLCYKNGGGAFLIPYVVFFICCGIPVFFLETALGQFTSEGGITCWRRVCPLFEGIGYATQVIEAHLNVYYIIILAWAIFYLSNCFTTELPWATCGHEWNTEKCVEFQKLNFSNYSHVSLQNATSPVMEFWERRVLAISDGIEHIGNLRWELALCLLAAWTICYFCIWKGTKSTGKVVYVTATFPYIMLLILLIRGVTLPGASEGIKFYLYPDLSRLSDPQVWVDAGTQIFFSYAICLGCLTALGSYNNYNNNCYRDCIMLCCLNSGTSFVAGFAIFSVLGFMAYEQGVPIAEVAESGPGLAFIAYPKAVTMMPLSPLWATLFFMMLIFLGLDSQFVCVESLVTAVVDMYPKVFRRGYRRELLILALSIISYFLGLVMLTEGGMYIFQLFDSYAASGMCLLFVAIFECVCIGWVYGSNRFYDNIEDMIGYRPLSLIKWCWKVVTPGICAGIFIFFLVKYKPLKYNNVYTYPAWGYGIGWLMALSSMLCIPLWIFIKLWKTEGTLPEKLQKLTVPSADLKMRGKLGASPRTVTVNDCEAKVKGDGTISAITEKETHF

mGAT4 [4] = biological target: T3, mGAT4; test: GABA uptake inhibition at mGAT4 with varied preincubation time; assay type: cell-based
mGAT1 [5] = biological target: T4, mGAT1 (Mus musculus, UniProt P31648); test: MS Binding Assay with NO711 as native MS marker; settings: in presence of 100 μM compound; read-out: remaining specific NO711 binding (mGAT1)
T4 construct: expressed in transfected cells; host or cells: HEK293
Procedure, shortened: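 Competitive MS binding using membranes from HEK293 cells stably expressing mGAT1, with 10 nM unlabeled NO711 as marker and compounds at 7 concentrations. Nonspecific binding defined with 100 mM GABA. Bound NO711 eluted after filtration and quantified by LC-ESI-MS/MS against [2H10]NO711; Ki derived.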

mGAT1 [6] = biological target: T4, mGAT1; test: [^3H]GABA uptake assay, HEK293 cells expressing mGAT1; assay type: cell-based; settings: HEK293; in presence of 100 μM compound
Procedure, shortened: (§1)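 HEK293 cells expressing mouse GATs preincubated 25 min at 37 °C with compound in Krebs buffer pH 7.2, then [3H]GABA added: 8 nM plus 32 nM unlabeled for 4 min (mGAT1/3/4), 20 nM plus 20 nM for 10 min (mGAT2). Filtration, scintillation counting; nonspecific uptake with 10 mM (mGAT1/3/4) or 100 mM GABA (mGAT2); pIC50.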

mGAT2 [7] = biological target: T1, mGAT2; test: [^3H]GABA uptake assay, HEK293 cells expressing mGAT2; assay type: cell-based; settings: HEK293; in presence of 100 μM compound
Procedure, shortened: as §1

mGAT3 [8] = biological target: T2, mGAT3; test: [^3H]GABA uptake assay, HEK293 cells expressing mGAT3; assay type: cell-based
Procedure, shortened: as §1

mGAT4 [9] = biological target: T3, mGAT4; test: [^3H]GABA uptake assay, HEK293 cells expressing mGAT4; assay type: cell-based; settings: [^3H]GABA uptake; pIC50±SEM
Procedure, shortened: as §1

Cc1ccsc1C(=CCCN1CCC[C@@H](C(=O)O)C1)c1sccc1C [Tiagabine]
remaining [^3H]GABA uptake mGAT2 (mGAT2 [1]): 50%
remaining [^3H]GABA uptake mGAT3 (mGAT3 [2]; in presence of 100 μM compound): 64%
remaining [^3H]GABA uptake mGAT4 (mGAT4 [3]): 73%

COc1ccc(C(OCCN2CCC[C@H](C(=O)O)C2)(c2ccc(OC)cc2)c2ccc(OC)cc2)cc1 [(S)‐SNAP‐5114, reference compound]
Normalized pIC50 mGAT4 (mGAT4 [4]; preincubation time 10 min, experiments 1-3, relative to 25 min = 100.00): 97.20
Normalized pIC50 mGAT4 (mGAT4 [4]; preincubation time 25 min, experiments 1-3 (reference)): 100.00
Normalized pIC50 mGAT4 (mGAT4 [4]; preincubation time 25 min, experiments 4-6 (reference)): 100.00
Normalized pIC50 mGAT4 (mGAT4 [4]; preincubation time 60 min, experiments 1-3, relative to 25 min = 100.00): 101.23
Normalized pIC50 mGAT4 (mGAT4 [4]; preincubation time 60 min, experiments 4-6, relative to 25 min = 100.00): 103.79
remaining [^3H]GABA uptake mGAT2 (mGAT2 [1]): 56%

COc1ccc(C(OCCN2CCC[C@H](C(=O)O)C2)(c2ccc(OC)cc2)c2ccc(OC)cc2C)cc1 [DDPM‐859]
pIC50 mGAT2 (mGAT2 [1]; [^3H]GABA uptake, pIC50±SEM): 4.12±0.08
pIC50 mGAT3 (mGAT3 [2]; [^3H]GABA uptake, pIC50±SEM): 4.85±0.04

COCc1ccc(C(OCCN2CCCC(C(=O)O)C2)(c2ccc(OC)cc2)c2ccc(OC)cc2)cc1 (racemic) [5 f, rac ‐1‐(2‐{[4‐(Methoxymethyl)phenyl]bis[4‐methoxyphenyl]methoxy}‐ethyl)piperidine‐3‐carboxylic acid]
remaining activity at 100 µM (mGAT1 [5]): 89.4%
remaining activity at 100 µM (mGAT1 [6]): 67.1%
remaining activity at 100 µM (mGAT2 [7]): 72.7%
IC50 (mGAT3 [8]; [^3H]GABA uptake, pIC50±SEM): 30.9 µM
IC50 (mGAT4 [9]): 3.8 µM

COc1ccc(C(OCCN2CCCC(C(=O)O)C2)(c2ccc(CNC3(C(=O)O)CC3)cc2)c2ccc(OC)cc2)cc1 (racemic) [5 p, rac‐ 1‐{2‐[(4‐{[(1‐Carboxycyclopropyl)amino]methyl}phenyl)bis(4‐methoxyphenyl)methoxy]ethyl}piperidine‐3‐carboxylic acid]
remaining activity at 100 µM (mGAT1 [5]): 58.8%
remaining activity at 100 µM (mGAT1 [6]): 78.2%
remaining activity at 100 µM (mGAT2 [7]): 76%
remaining activity at 100 µM (mGAT3 [8]; HEK293, in presence of 100 μM compound): 69.1%
IC50 (mGAT4 [9]): 13.2 µM
